This is an account of results in patent US9309200B2, “Benzazepine derivatives, pharmaceutical compositions containing them, and their use in therapy” (AbbVie Deutschland GmbH & Co. KG, priority 2011, dated 2016).

Structures can show the parent of a compound that is named as a salt. Bounds are passed on as bounds.

For this test, the target named is T1, human GlyT1c transporter (Homo sapiens, UniProt P48067).
T1 construct: expressed in transfected cells; host or cells: recombinant CHO cells (membranes); the uptake assay names the line hGlyT1c_5_CHO
T1 sequence (P48067 1-706): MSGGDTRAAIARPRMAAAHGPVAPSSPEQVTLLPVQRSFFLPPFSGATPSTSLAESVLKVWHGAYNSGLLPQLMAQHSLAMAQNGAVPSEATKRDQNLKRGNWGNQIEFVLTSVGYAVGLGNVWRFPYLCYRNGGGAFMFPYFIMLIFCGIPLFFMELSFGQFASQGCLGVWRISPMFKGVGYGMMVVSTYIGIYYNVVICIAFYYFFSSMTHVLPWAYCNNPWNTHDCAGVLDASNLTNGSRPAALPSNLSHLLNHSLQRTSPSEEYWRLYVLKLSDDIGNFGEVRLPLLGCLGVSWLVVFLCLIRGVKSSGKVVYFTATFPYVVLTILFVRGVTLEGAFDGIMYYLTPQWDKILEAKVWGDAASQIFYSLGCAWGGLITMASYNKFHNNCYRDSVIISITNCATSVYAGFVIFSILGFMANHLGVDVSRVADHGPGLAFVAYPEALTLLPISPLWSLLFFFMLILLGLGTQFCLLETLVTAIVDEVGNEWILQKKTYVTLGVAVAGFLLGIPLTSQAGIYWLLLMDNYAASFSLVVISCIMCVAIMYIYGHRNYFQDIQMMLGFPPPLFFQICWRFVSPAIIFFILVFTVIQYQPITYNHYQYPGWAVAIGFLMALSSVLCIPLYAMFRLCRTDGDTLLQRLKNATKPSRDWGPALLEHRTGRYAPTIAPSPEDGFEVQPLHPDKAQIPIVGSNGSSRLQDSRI
As to the kind of experiment: Radioligand binding assay using recombinant CHO cell membranes expressing human GlyT1. To be noted: read-out: radioligand binding Kiapp. The method, then:
2. Radioligand Binding Assays Using Recombinant CHO Cell Membranes Expressing Human GlyT1:
Radioligand binding to human GlyT1c transporter-expressing membranes was determined as described in Mezler et al., Molecular Pharmacology 74:1705-1715, 2008.
Take `Cn1cnc(S(=O)(=O)NCCOc2ccc3c(c2)C(Cc2ccccc2)NCCC3)c1` (stereo not shown) [Example 2, N-(2-(1-Benzyl-2,3,4,5-tetrahydro-1H-benzo[c]azepin-8-yloxy)ethyl)-1-methyl-1H-imidazole-4-sulfonamide]: the Ki was no more than 100 nM.
In the case of `O=S(=O)(CC1CC1)NCCOc1ccc2c(c1)C(Cc1cccc(F)c1)NCCC2` (stereo not shown) [Example 24, C-Cyclopropyl-N-{2-[1-(3-fluoro-benzyl)-2,3,4,5-tetrahydro-1H-benzo[c]azepin-8-yloxy]-ethyl}-methanesulfonamide], the Ki is no more than 100 nM.
As to `CCS(=O)(=O)NCCOc1ccc2c(c1)C(Cc1ccc(Cl)cc1)NCCC2` (stereo not shown) [Example 9, Ethanesulfonic acid {2-[1-(4-chlorobenzyl)-2,3,4,5-tetrahydro-1H-benzo[c]azepin-8-yloxy]-ethyl}-amide], the Ki was no more than 10000 nM.
With `Cn1cnc(S(=O)(=O)NCc2ccc3c(c2)C(Cc2ccccc2)NCCC3)c1` (stereo not shown) [Example 35, 1-Methyl-1H-imidazole-4-sulfonic acid (1-benzyl-2,3,4,5-tetra-hydro-1H-benzo[c]azepin-8-ylmethyl)-amide], the Ki was no more than 10 nM.
On to `CCCS(=O)(=O)NCc1ccc2c(c1)C(Cc1cccc(F)c1)NCCC2` (stereo not shown) [Example 27, Propane-1-sulfonic acid [1-(3-fluoro-benzyl)-2,3,4,5-tetrahydro-1H-benzo[c]azepin-8-ylmethyl]-amide], for which the Ki was no more than 1000 nM.
`O=S(=O)(NCc1ccc2c(c1)C(Cc1ccc(Cl)cc1)NCCC2)C1CCC1` (stereo not shown) [Example 17, Cyclobutanesulfonic acid [1-(4-chloro-benzyl)-2,3,4,5-tetra-hydro-1H-benzo[c]azepin-8-ylmethyl]-amide]: the Ki is no more than 1000 nM.
The value for `CN(Cc1ccc2c(c1)C(Cc1ccccc1)NCCC2)S(=O)(=O)c1cn(C)cn1` (stereo not shown) [Example 36, 1-Methyl-1H-imidazole-4-sulfonic acid (1-benzyl-2,3,4,5-tetrahydro-1H-benzo[c]azepin-8-ylmethyl)-methyl-amide] was no more than 100 nM; that for `CCS(=O)(=O)NCCOc1ccc2c(c1)C(Cc1ccccc1)NCCC2` (stereo not shown) [Example 11, Ethanesulfonic acid [2-(1-benzyl-2,3,4,5-tetrahydro-1H-benzo[c]azepin-8-yloxy)-ethyl]-amide] was no more than 1000 nM; that for `CN1CCCc2ccc(OCCNS(=O)(=O)c3cnn(C)c3)cc2C1Cc1ccccc1` (stereo not shown) [Example 7, 1-Methyl-1H-pyrazole-4-sulfonic acid [2-(1-benzyl-2-methyl-2,3,4,5-tetrahydro-1H-benzo[c]azepin-8-yloxy)-ethyl]amide] was no more than 10 nM.
The value for `Cn1cnc(S(=O)(=O)NCc2cc3c(cc2F)CCCNC3Cc2ccccc2)c1` (stereo not shown) [Example 41, 1-Methyl-1H-imidazole-4-sulfonic acid (1-benzyl-7-fluoro-2,3,4,5-tetrahydro-1H-benzo[c]azepin-8-ylmethyl)-amide] was no more than 10 nM; that for `CCCS(=O)(=O)NCCOc1ccc2c(c1)C(Cc1ccccc1)NCCC2` (stereo not shown) [Example 10, Propane-1-sulfonic acid [2-(1-benzyl-2,3,4,5-tetrahydro-1H-benzo[c]azepin-8-yloxy)-ethyl]-amide] was no more than 100 nM; that for `CCS(=O)(=O)NCCOc1ccc2c(c1)C(Cc1cccc(F)c1)NCCC2` (stereo not shown) [Example 25, Ethanesulfonic acid {2-[1-(3-fluoro-benzyl)-2,3,4,5-tetrahydro-1H-benzo[c]azepin-8-yloxy]-ethyl}-amide] was no more than 1000 nM.
The same measure for `COc1ccc2c(c1)C(Cc1ccccc1)NCCC2` (stereo not shown) [Example 1, 1-Benzyl-8-methoxy-2,3,4,5-tetrahydro-1H-benzo[c]azepine]: greater than 10000 nM; for `Cn1cc(S(=O)(=O)NCc2ccc3c(c2)C(Cc2ccccc2)NCCC3)cn1` (stereo not shown) [Example 34, 1-Methyl-1H-pyrazole-4-sulfonic acid (1-benzyl-2,3,4,5-tetra-hydro-1H-benzo[c]azepin-8-ylmethyl)-amide]: no more than 10 nM.
On to `Cn1cc(S(=O)(=O)NCCOc2ccc3c(c2)C(Cc2cccc(F)c2)NCCC3)cn1` (stereo not shown) [Example 21, 1-Methyl-1H-pyrazole-4-sulfonic acid {2-[1-(3-fluoro-benzyl)-2,3,4,5-tetrahydro-1H-benzo[c]azepin-8-yloxy]-ethyl}-amide], for which the Ki was no more than 10 nM.
The same measure for `CCCN1CCCc2ccc(CNS(=O)(=O)c3cn(C)cn3)cc2C1Cc1ccccc1` (stereo not shown) [Example 37, 1-Methyl-1H-imidazole-4-sulfonic acid (1-benzyl-2-propyl-2,3,4,5-tetrahydro-1H-benzo[c]azepin-8-ylmethyl)-amide]: no more than 10 nM; for `Cn1cnc(S(=O)(=O)NCCOc2ccc3c(c2)C(Cc2cccc(F)c2)NCCC3)c1` (stereo not shown) [Example 20, 1-Methyl-1H-imidazole-4-sulfonic acid {2-[1-(3-fluoro-benzyl)-2,3,4,5-tetrahydro-1H-benzo[c]azepin-8-yloxy]-ethyl}-amide]: no more than 10 nM; for `O=S(=O)(NCc1ccc2c(c1)C(Cc1ccccc1)NCCC2)C1CCC1` (stereo not shown) [Example 31, Cyclobutanesulfonic acid (1-benzyl-2,3,4,5-tetrahydro-1H-benzo[c]azepin-8-ylmethyl)-amide]: no more than 100 nM.
Take `O=S(=O)(CC1CC1)NCc1ccc2c(c1)C(Cc1ccccc1)NCCC2` (stereo not shown) [Example 30, N-(1-Benzyl-2,3,4,5-tetrahydro-1H-benzo[c]azepin-8-ylmethyl)-C-cyclopropyl-methane-sulfonamide]: the Ki is no more than 100 nM.
The value for `Cn1cc(S(=O)(=O)NCc2ccc3c(c2)C(Cc2cccc(F)c2)NCCC3)cn1` (stereo not shown) [Example 26, 1-Methyl-1H-pyrazole-4-sulfonic acid [1-(3-fluoro-benzyl)-2,3,4,5-tetrahydro-1H-benzo[c]azepin-8-ylmethyl]-amide] was no more than 10 nM.
The same measure for `O=S(=O)(CC1CC1)NCc1ccc2c(c1)C(Cc1ccc(Cl)cc1)NCCC2` (stereo not shown) [Example 15, N-[1-(4-Chloro-benzyl)-2,3,4,5-tetrahydro-1H-benzo[c]azepin-8-ylmethyl]-C-cyclopropyl-methanesulfonamide]: no more than 10000 nM.
The value for `COc1ccc2c(c1)C(C1(c3ccc(Cl)cc3)CCC1)NCCO2` (stereo not shown) [Example 5, 5-(1-(4-Chlorophenyl)cyclobutyl)-7-methoxy-2,3,4,5-tetrahydrobenzo[f][1,4]oxazepine hydrochloride] was no more than 10000 nM.
Consider `CCN(Cc1ccc2c(c1)C(Cc1ccccc1)NCCC2)S(=O)(=O)c1cn(C)cn1` (stereo not shown) [Example 40, 1-Methyl-1H-imidazole-4-sulfonic acid (1-benzyl-2,3,4,5-tetrahydro-1H-benzo[c]azepin-8-ylmethyl)-ethyl-amide], for which the Ki was no more than 100 nM.
The value for `O=S(=O)(CC1CC1)NCc1ccc2c(c1)C(Cc1cccc(F)c1)NCCC2` (stereo not shown) [Example 28, C-Cyclopropyl-N-[1-(3-fluoro-benzyl)-2,3,4,5-tetrahydro-1H-benzo[c]azepin-8-ylmethyl)-methanesulfonamide] was no more than 100 nM.
Consider `O=S(=O)(CC1CC1)NCCOc1ccc2c(c1)C(Cc1ccccc1)NCCC2` (stereo not shown) [Example 13, N-{2-[1-Benzyl-2,3,4,5-tetrahydro-1H-benzo[c]azepin-8-yloxy]-ethyl}-C-cyclopropyl-methanesulfonamide], for which the Ki is no more than 100 nM.
The value for `Cn1cnc(S(=O)(=O)NCc2ccc3c(c2)C(C(C)(C)c2ccccc2)NCCO3)c1` (stereo not shown) [Example 47, 1-Methyl-1H-imidazole-4-sulfonic acid [5-(1-methyl-1-phenyl-ethyl)-2,3,4,5-tetrahydro-benzo[f][1,4]oxazepin-7-ylmethyl]-amide] was no more than 10000 nM; that for `O=S(=O)(CC1CC1)NCCOc1ccc2c(c1)C(Cc1ccccc1)NCCC2` (stereo not shown) [Example 4, N-(2-(1-benzyl-2,3,4,5-tetrahydro-1H-benzo[c]azepin-8-yloxy)ethyl)-1-cyclopropylmethanesulfonamide] was no more than 100 nM; that for `CCN1CCCc2ccc(CNS(=O)(=O)c3cn(C)cn3)cc2C1Cc1ccccc1` (stereo not shown) [Example 39, 1-Methyl-1H-imidazole-4-sulfonic acid (1-benzyl-2-ethyl-2,3,4,5-tetrahydro-1H-benzo[c]azepin-8-ylmethyl)-amide] was no more than 100 nM.
The value for `CCCS(=O)(=O)NCCOc1ccc2c(c1)C(Cc1ccc(Cl)cc1)NCCC2` (stereo not shown) [Example 8, Propane-1-sulfonic acid {2-[1-(4-chlorobenzyl)-2,3,4,5-tetrahydro-1H-benzo[c]azepin-8-yloxy]-ethyl}-amide] was no more than 1000 nM.
The same measure for `Cn1cnc(S(=O)(=O)NCc2ccc3c(c2)C(Cc2ccc(Cl)cc2)NCCC3)c1` (stereo not shown) [Example 18, 1-Methyl-1H-imidazole-4-sulfonic acid [1-(4-chloro-benzyl)-2,3,4,5-tetrahydro-1H-benzo-[c]azepin-8-ylmethyl]-amide]: no more than 1000 nM; for `CN1CCCc2ccc(CNS(=O)(=O)c3cn(C)cn3)cc2C1Cc1ccccc1` (stereo not shown) [Example 38, 1-Methyl-1H-imidazole-4-sulfonic acid (1-benzyl-2-methyl-2,3,4,5-tetrahydro-1H-benzo[c]azepin-8-ylmethyl)-amide]: no more than 100 nM.
